Our source for the mutagenic call values is PubChem BioAssay AID1259407 (Chemical Carcinogenesis Research Information System (CCRIS), 2018).

The series relates to CCRIS mutagenicity, Ames/micronucleus/aberration tests. Nature of the series: CCRIS mutagenicity studies.
Setting [1] is: Test System: AMES SALMONELLA TYPHIMURIUM, Strain/Indicator: TA97, Metabolic Activation: HAMSTER, LIVER, S-9, AROCLOR 1254 (10%), Method: PREINCUBATION
Setting [2] is: Test System: AMES SALMONELLA TYPHIMURIUM, Strain/Indicator: TA97, Metabolic Activation: HAMSTER, LIVER, S-9, AROCLOR 1254 (30%), Method: PREINCUBATION
Where [3] appears, read: Test System: AMES SALMONELLA TYPHIMURIUM, Strain/Indicator: TA97, Metabolic Activation: NONE, Method: PREINCUBATION
Setting [4] is: Test System: AMES SALMONELLA TYPHIMURIUM, Strain/Indicator: TA98, Metabolic Activation: HAMSTER, LIVER, S-9, AROCLOR 1254 (10%), Method: PREINCUBATION
[5] abbreviates: Test System: AMES SALMONELLA TYPHIMURIUM, Strain/Indicator: TA98, Metabolic Activation: HAMSTER, LIVER, S-9, AROCLOR 1254 (30%), Method: PREINCUBATION
Setting [6] is: Test System: AMES SALMONELLA TYPHIMURIUM, Strain/Indicator: TA98, Metabolic Activation: NONE, Method: PREINCUBATION
Where [7] appears, read: Test System: AMES SALMONELLA TYPHIMURIUM, Strain/Indicator: TA98, Metabolic Activation: RAT, LIVER, S-9, AROCLOR 1254 (10%), Method: PREINCUBATION
Setting [8] is: Test System: AMES SALMONELLA TYPHIMURIUM, Strain/Indicator: TA98, Metabolic Activation: RAT, LIVER, S-9, AROCLOR 1254 (30%), Method: PREINCUBATION
The mark [9] stands for this setting: Test System: AMES SALMONELLA TYPHIMURIUM, Strain/Indicator: TA100, Metabolic Activation: HAMSTER, LIVER, S-9, AROCLOR 1254 (10%), Method: PREINCUBATION
Setting [10] is: Test System: AMES SALMONELLA TYPHIMURIUM, Strain/Indicator: TA100, Metabolic Activation: HAMSTER, LIVER, S-9, AROCLOR 1254 (30%), Method: PREINCUBATION
Where [11] appears, read: Test System: AMES SALMONELLA TYPHIMURIUM, Strain/Indicator: TA100, Metabolic Activation: NONE, Method: PREINCUBATION
Where [12] appears, read: Test System: AMES SALMONELLA TYPHIMURIUM, Strain/Indicator: TA100, Metabolic Activation: RAT, LIVER, S-9, AROCLOR 1254 (10%), Method: PREINCUBATION
The mark [13] stands for this setting: Test System: AMES SALMONELLA TYPHIMURIUM, Strain/Indicator: TA100, Metabolic Activation: RAT, LIVER, S-9, AROCLOR 1254 (30%), Method: PREINCUBATION
[14] abbreviates: Test System: AMES SALMONELLA TYPHIMURIUM, Strain/Indicator: TA1535, Metabolic Activation: HAMSTER, LIVER, S-9, AROCLOR 1254 (10%), Method: PREINCUBATION
[15] abbreviates: Test System: AMES SALMONELLA TYPHIMURIUM, Strain/Indicator: TA1535, Metabolic Activation: HAMSTER, LIVER, S-9, AROCLOR 1254 (30%), Method: PREINCUBATION
Setting [16] is: Test System: AMES SALMONELLA TYPHIMURIUM, Strain/Indicator: TA1535, Metabolic Activation: NONE, Method: PREINCUBATION
Where [17] appears, read: Test System: AMES SALMONELLA TYPHIMURIUM, Strain/Indicator: TA1535, Metabolic Activation: RAT, LIVER, S-9, AROCLOR 1254 (10%), Method: PREINCUBATION
Where [18] appears, read: Test System: AMES SALMONELLA TYPHIMURIUM, Strain/Indicator: TA1535, Metabolic Activation: RAT, LIVER, S-9, AROCLOR 1254 (30%), Method: PREINCUBATION

SMILES strings stand for the structures. Activity calls are given as the source filed them. No rule for the calls is given here.

Turning to `Cc1ccccc1Br`, the mutagenic call by setting is: under setting [1], “inactive; negative”; under setting [2], “inactive; negative”; under setting [3], “inactive; negative”; (Test System: AMES SALMONELLA TYPHIMURIUM, Strain/Indicator: TA97, Metabolic Activation: RAT, LIVER, S-9, AROCLOR 1254 (10%), Method: PREINCUBATION) “inactive; negative”; (Test System: AMES SALMONELLA TYPHIMURIUM, Strain/Indicator: TA97, Metabolic Activation: RAT, LIVER, S-9, AROCLOR 1254 (30%), Method: PREINCUBATION) “inactive; negative”; under setting [4], “inactive; negative”. In addition, the mutagenic call was “inactive; negative” under setting [5]; “inactive; negative” under setting [6]; “inactive; negative” (Test System: AMES SALMONELLA TYPHIMURIUM, Strain/Indicator: TA98, Metabolic Activation: RAT LIVER S-9, PHENOBARBITAL AND BETA-NAPHTHOFLAVONE, Method: PREINCUBATION); “inactive; negative” under setting [7]; “inactive; negative” under setting [8]; “inactive; negative” under setting [9]. Besides, the mutagenic call under setting [10] is “inactive; negative”; the mutagenic call under setting [11] was “inactive; negative”; the mutagenic call (Test System: AMES SALMONELLA TYPHIMURIUM, Strain/Indicator: TA100, Metabolic Activation: RAT LIVER S-9, PHENOBARBITAL AND BETA-NAPHTHOFLAVONE, Method: PREINCUBATION) is “inactive; negative”; the mutagenic call under setting [12] is “inactive; negative”; the mutagenic call under setting [13] was “inactive; negative”; the mutagenic call (Test System: AMES SALMONELLA TYPHIMURIUM, Strain/Indicator: TA102, Metabolic Activation: NONE, Method: PREINCUBATION) was “inactive; negative”. The mutagenic call is, setting by setting: (Test System: AMES SALMONELLA TYPHIMURIUM, Strain/Indicator: TA102, Metabolic Activation: RAT LIVER S-9, PHENOBARBITAL AND BETA-NAPHTHOFLAVONE, Method: PREINCUBATION) “inactive; negative”; (Test System: AMES SALMONELLA TYPHIMURIUM, Strain/Indicator: TA104, Metabolic Activation: NONE, Method: PREINCUBATION) “inactive; negative”; (Test System: AMES SALMONELLA TYPHIMURIUM, Strain/Indicator: TA104, Metabolic Activation: RAT LIVER S-9, PHENOBARBITAL AND BETA-NAPHTHOFLAVONE, Method: PREINCUBATION) “inactive; negative”; under setting [14], “inactive; negative”; under setting [15], “inactive; negative”; under setting [16], “inactive; negative”. The mutagenic call runs as follows: (Test System: AMES SALMONELLA TYPHIMURIUM, Strain/Indicator: TA1535, Metabolic Activation: RAT LIVER S-9, PHENOBARBITAL AND BETA-NAPHTHOFLAVONE, Method: PREINCUBATION) “inactive; negative”; under setting [17], “inactive; negative”; under setting [18], “inactive; negative”; (Test System: AMES SALMONELLA TYPHIMURIUM, Strain/Indicator: TA1537, Metabolic Activation: HAMSTER, LIVER, S-9, AROCLOR 1254 (30%), Method: PREINCUBATION) “inactive; negative”; (Test System: AMES SALMONELLA TYPHIMURIUM, Strain/Indicator: TA1537, Metabolic Activation: NONE, Method: PREINCUBATION) “inactive; negative”; (Test System: AMES SALMONELLA TYPHIMURIUM, Strain/Indicator: TA1537, Metabolic Activation: RAT LIVER S-9, PHENOBARBITAL AND BETA-NAPHTHOFLAVONE, Method: PREINCUBATION) “inactive; negative”. In addition, the mutagenic call is “inactive; negative” (Test System: AMES SALMONELLA TYPHIMURIUM, Strain/Indicator: TA1537, Metabolic Activation: RAT, LIVER, S-9, AROCLOR 1254 (30%), Method: PREINCUBATION); “inactive; negative” (Test System: E.COLI, Strain/Indicator: WP2UVRA/PKM101, Metabolic Activation: NONE, Method: PREINCUBATION); “inactive; negative” (Test System: E.COLI, Strain/Indicator: WP2UVRA/PKM101, Metabolic Activation: RAT LIVER S-9, PHENOBARBITAL AND BETA-NAPHTHOFLAVONE, Method: PREINCUBATION); “inactive; negative” (Test System: E.COLI, Strain/Indicator: WP2UVRA, Metabolic Activation: NONE, Method: PREINCUBATION); “inactive; negative” (Test System: E.COLI, Strain/Indicator: WP2UVRA, Metabolic Activation: RAT LIVER S-9, PHENOBARBITAL AND BETA-NAPHTHOFLAVONE, Method: PREINCUBATION).

Regarding `C[C@@H]1C[C@]2(O[C@@H]2C)C(=O)O[C@@H]2CCN(C)C/C=C(/COC(=O)[C@]1(C)O)C2=O`, the mutagenic call is “inactive; negative; by authors criteria results are positive” (Test System: AMES SALMONELLA TYPHIMURIUM, Strain/Indicator: TA100, Metabolic Activation: HAMSTER, LIVER, S-9, PCB, Method: PREINCUBATION); “active; positive” (Test System: AMES SALMONELLA TYPHIMURIUM, Strain/Indicator: TA100, Metabolic Activation: RAT, LIVER, S-9, PCB, Method: PREINCUBATION); “active; positive” (Test System: UDS RAT HEPATOCYTES, Strain/Indicator: THY INCORP, Metabolic Activation: NONE, Method: AUTORADIOGRAPHY).

For the molecule `NCCCNCCSP(=O)(O)O`, where the note is “End Point: In vivo micronucleus, Test System: Bone marrow polychromatic erythrocytes, Species: Mouse, Strain/Sex: C57BL/6J/Male, Route: Intraperitoneal”, the mutagenic call is “inactive; negative (significant increase in pce/nce ratio only when administered before ga”.

`N#CCO`: the mutagenic call by setting is: under setting [1], “inactive; negative”; under setting [2], “inactive; negative”; under setting [3], “inactive; negative”; (Test System: AMES SALMONELLA TYPHIMURIUM, Strain/Indicator: TA97, Metabolic Activation: RAT, LIVER, S-9, AROCLOR 1254 (10 OR 30%), Method: PREINCUBATION) “inactive; negative”; under setting [4], “inactive; negative”; under setting [5], “inactive; negative”. In addition, the mutagenic call reads like this: under setting [6], “inactive; negative”; under setting [7], “inactive; negative”; under setting [8], “inactive; negative”; under setting [9], “inactive; negative”; under setting [10], “inactive; negative”; under setting [11], “inactive; negative”. Also, the mutagenic call under setting [12] was “inactive; negative”; the mutagenic call under setting [13] was “inactive; negative”; the mutagenic call under setting [14] was “inactive; negative”; the mutagenic call under setting [15] was “inactive; negative”; the mutagenic call under setting [16] is “inactive; negative”; the mutagenic call under setting [17] was “inactive; negative”. For the same molecule, under setting [18], the mutagenic call is “inactive; negative”.

For the molecule `O=[N+]([O-])O.O=[N+]([O-])O.[Cd+2]`, the mutagenic call (Test System: E. COLI, Strain/Indicator: DG1153, Metabolic Activation: NONE, Method: FLUCTUATION TEST) was “active; positive”.
